According to the NIST ThermoML archive (doi:10.1016/j.jct.2009.12.002):
Where “and” joins values, the source holds several entries; their conditions need not be identical. Equal entries are not always repeated. ± gives the expanded uncertainty stated by the source.

Conditions: Liquid; for mass density: 101.33 kPa, Pycnometric method; for speed of sound: Pulse-echo method

CC(C)CCCCCCCOC(=O)c1ccccc1C(=O)OCCCCCCCC(C)C
mass density (273.84 K): 980.22 ± 0.39 kg/m3
mass density (274.06 K): 980.07 ± 0.39 kg/m3
mass density (274.07 K): 980.08 ± 0.39 kg/m3
mass density (274.35 K): 979.86 ± 0.39 kg/m3
mass density (282.95 K): 973.75 ± 0.38 kg/m3
speed of sound (293.06 K, 1185 kPa): 1436.6 ± 3 m/s
speed of sound (298.08 K, 1100 kPa): 1419.9 ± 3 m/s
speed of sound (298.08 K, 5400 kPa): 1439 ± 3 m/s
speed of sound (298.08 K, 10180 kPa): 1459.7 ± 3 m/s
speed of sound (298.08 K, 16980 kPa): 1488 ± 3.1 m/s
speed of sound (298.08 K, 25560 kPa): 1522 ± 3.2 m/s
speed of sound (298.08 K, 32760 kPa): 1549.3 ± 3.2 m/s
speed of sound (298.08 K, 40150 kPa): 1576.5 ± 3.3 m/s
speed of sound (298.08 K, 47800 kPa): 1602.9 ± 3.3 m/s
speed of sound (298.08 K, 55510 kPa): 1629.7 ± 3.4 m/s
speed of sound (298.08 K, 62350 kPa): 1652.4 ± 3.4 m/s
mass density (298.25 K): 962.88 ± 0.36 kg/m3
mass density (298.28 K): 962.83 ± 0.37 kg/m3
mass density (305.26 K): 957.83 ± 0.37 kg/m3
speed of sound (313.18 K, 1050 kPa): 1367.8 ± 2.9 m/s
speed of sound (313.18 K, 1110 kPa): 1367.9 ± 2.9 m/s
speed of sound (313.18 K, 15410 kPa): 1432.5 ± 3 m/s
speed of sound (313.18 K, 29860 kPa): 1491.8 ± 3.1 m/s
speed of sound (313.18 K, 44860 kPa): 1548.5 ± 3.2 m/s
speed of sound (313.18 K, 60370 kPa): 1602.9 ± 3.3 m/s
speed of sound (313.18 K, 75510 kPa): 1652.4 ± 3.4 m/s
speed of sound (313.18 K, 89970 kPa): 1697 ± 3.5 m/s
speed of sound (313.18 K, 105660 kPa): 1742.8 ± 3.6 m/s
speed of sound (313.18 K, 119950 kPa): 1782.4 ± 3.7 m/s
mass density (313.27 K): 952.21 ± 0.38 kg/m3 and 952.15 ± 0.38 kg/m3
speed of sound (333.24 K, 1100 kPa): 1304.1 ± 2.7 m/s
speed of sound (333.24 K, 1130 kPa): 1304.1 ± 2.7 m/s
speed of sound (333.24 K, 14910 kPa): 1370.1 ± 2.9 m/s
speed of sound (333.24 K, 29760 kPa): 1434.3 ± 3 m/s
speed of sound (333.24 K, 45000 kPa): 1494.4 ± 3.1 m/s
speed of sound (333.24 K, 60580 kPa): 1551.1 ± 3.2 m/s
speed of sound (333.24 K, 75550 kPa): 1601.7 ± 3.3 m/s
speed of sound (333.24 K, 90480 kPa): 1649.2 ± 3.4 m/s
speed of sound (333.24 K, 105430 kPa): 1694 ± 3.5 m/s
speed of sound (333.24 K, 120280 kPa): 1736.3 ± 3.6 m/s
speed of sound (333.24 K, 139660 kPa): 1788.5 ± 3.7 m/s
mass density (333.28 K): 937.93 ± 0.4 kg/m3
speed of sound (353.18 K, 1010 kPa): 1241.9 ± 2.6 m/s
speed of sound (353.18 K, 1280 kPa): 1243.1 ± 2.7 m/s
speed of sound (353.18 K, 10060 kPa): 1288.5 ± 2.7 m/s
speed of sound (353.18 K, 19830 kPa): 1335.3 ± 2.8 m/s
speed of sound (353.18 K, 29890 kPa): 1380.3 ± 2.9 m/s
speed of sound (353.18 K, 40170 kPa): 1423.1 ± 3 m/s
speed of sound (353.18 K, 50230 kPa): 1462.7 ± 3 m/s
speed of sound (353.18 K, 60350 kPa): 1500.4 ± 3.1 m/s
speed of sound (353.18 K, 70310 kPa): 1535.6 ± 3.2 m/s
speed of sound (353.18 K, 80170 kPa): 1569 ± 3.2 m/s
speed of sound (353.18 K, 90020 kPa): 1601 ± 3.3 m/s
speed of sound (353.18 K, 104640 kPa): 1646 ± 3.4 m/s
speed of sound (353.18 K, 122120 kPa): 1697.1 ± 3.5 m/s
speed of sound (353.18 K, 139450 kPa): 1745 ± 3.6 m/s
mass density (353.29 K): 923.76 ± 0.43 kg/m3
speed of sound (373.1 K, 460 kPa): 1179.1 ± 2.5 m/s
speed of sound (373.1 K, 1150 kPa): 1183.1 ± 2.5 m/s
speed of sound (373.1 K, 1350 kPa): 1184.4 ± 2.5 m/s
speed of sound (373.1 K, 10370 kPa): 1233.7 ± 2.6 m/s
speed of sound (373.1 K, 20030 kPa): 1282.4 ± 2.7 m/s
speed of sound (373.1 K, 29930 kPa): 1328.6 ± 2.8 m/s
speed of sound (373.1 K, 40300 kPa): 1373.8 ± 2.9 m/s
speed of sound (373.1 K, 50050 kPa): 1413.5 ± 2.9 m/s
speed of sound (373.1 K, 60040 kPa): 1452 ± 3 m/s
speed of sound (373.1 K, 70060 kPa): 1488.7 ± 3.1 m/s
speed of sound (373.1 K, 80050 kPa): 1523.7 ± 3.2 m/s
speed of sound (373.1 K, 90060 kPa): 1557.2 ± 3.2 m/s
speed of sound (373.1 K, 100440 kPa): 1590.2 ± 3.3 m/s
speed of sound (373.1 K, 110260 kPa): 1620.7 ± 3.3 m/s
speed of sound (373.1 K, 120180 kPa): 1649.7 ± 3.4 m/s
speed of sound (373.1 K, 130570 kPa): 1679.6 ± 3.5 m/s
speed of sound (373.1 K, 140300 kPa): 1707 ± 3.5 m/s
mass density (373.29 K): 909.62 ± 0.46 kg/m3
mass density (393.31 K): 895.47 ± 0.48 kg/m3
speed of sound (393.54 K, 1240 kPa): 1125.2 ± 2.4 m/s
speed of sound (393.54 K, 1280 kPa): 1125.4 ± 2.4 m/s
speed of sound (393.54 K, 14940 kPa): 1203.3 ± 2.5 m/s
speed of sound (393.54 K, 29730 kPa): 1277.1 ± 2.7 m/s
speed of sound (393.54 K, 44510 kPa): 1343.3 ± 2.8 m/s
speed of sound (393.54 K, 59690 kPa): 1404.8 ± 2.9 m/s
speed of sound (393.54 K, 75010 kPa): 1462 ± 3 m/s
speed of sound (393.54 K, 104930 kPa): 1563 ± 3.2 m/s
speed of sound (393.54 K, 122450 kPa): 1616.7 ± 3.3 m/s
speed of sound (393.54 K, 139770 kPa): 1666.6 ± 3.4 m/s
mass density (413.33 K): 881.29 ± 0.51 kg/m3
speed of sound (413.41 K, 1110 kPa): 1069.6 ± 2.3 m/s
speed of sound (413.41 K, 1130 kPa): 1069.8 ± 2.3 m/s
speed of sound (413.41 K, 14800 kPa): 1152.3 ± 2.5 m/s
speed of sound (413.41 K, 29640 kPa): 1229.8 ± 2.6 m/s
speed of sound (413.41 K, 45070 kPa): 1301.7 ± 2.7 m/s
speed of sound (413.41 K, 60270 kPa): 1365.4 ± 2.8 m/s
speed of sound (413.41 K, 75540 kPa): 1423.9 ± 3 m/s
speed of sound (413.41 K, 90150 kPa): 1476 ± 3.1 m/s
speed of sound (413.41 K, 105150 kPa): 1526 ± 3.2 m/s
speed of sound (413.41 K, 119720 kPa): 1571.9 ± 3.2 m/s
speed of sound (413.41 K, 139510 kPa): 1630.3 ± 3.4 m/s
